{"source": "patent US4604238A", "about": "“Analogs of calcitonin” (Armour Pharmaceutical Company, priority 1984, dated 1986)", "key": {"[1]": {"system": "serum calcium concentration", "description": "Biological Assay of Calcitonin Analogs In Vivo\nRats were divided into four groups of seven animals, and each group was assigned at random to a dose of standard or test solution. Low and high doses were chosen from the linear portion of the dose-response curve. For the salmon calcitonin standard, the values were 0.7 and 2.1 ng. peptide/100 g. body weight (BW). This dose approximates 3 and 9 MU/100 g. BW. Peptides were given by subcutaneous injection (0.2 ml/100 g. BW) and blood was withdrawn 1 hour later for serum calcium determination. Sera are processed and analyzed within two hours of collection. Results were analyzed within two hours of collection."}, "[2]": {"settings": "literature values, Experientia 32(9), 1104-1106 (1976); cited from earlier work"}}, "note": "Bridge positions count the residues as written; N and C are the ends. Peptide text beside a SMILES is read from it.", "data": [{"compound": "CC(C)C[C@H](NC(=O)CNC(=O)[C@@H]1CSSC[C@H](N)C(=O)NCC(=O)N[C@@H](CO)C(=O)N[C@@H](CC(C)C)C(=O)N[C@@H](CO)C(=O)N[C@@H]([C@@H](C)O)C(=O)N1)C(=O)NCC(=O)N[C@@H](CCCCN)C(=O)N[C@@H](CC(C)C)C(=O)N[C@@H](CO)C(=O)N[C@@H](CCC(N)=O)C(=O)N[C@@H](CCC(=O)O)C(=O)N[C@@H](CC(C)C)C(=O)N[C@@H](Cc1c[nH]cn1)C(=O)N[C@@H](CCCCN)C(=O)N[C@@H](CC(C)C)C(=O)N[C@@H](CCC(N)=O)C(=O)N[C@H](C(=O)N1CCC[C@H]1C(=O)N[C@@H](CCCNC(=N)N)C(=O)N[C@H](C(=O)N[C@@H](CC(N)=O)C(=O)N[C@H](C(=O)NCC(=O)N[C@@H](CO)C(=O)NCC(=O)N[C@H](C(=O)N1CCC[C@H]1C(N)=O)[C@@H](C)O)[C@@H](C)O)[C@@H](C)O)[C@@H](C)O", "note": "[[Gly^2,Ser^3,Gly^8,des-Tyr^22]SCT, [Gly^2,Ser^3,Gly^8,des-Tyr^22]salmon calcitonin] (H-CGSLSTCGLGKLSQELHKLQTPRTNTGSGTP-NH2; disulfide 1-7)", "values": [{"measurement": "biological potency", "setting": "[1]; rat, in vivo, sc", "result": 8600, "unit": "IU/mg"}]}, {"compound": "CC(C)C[C@H](NC(=O)[C@H](CCCCN)NC(=O)CNC(=O)[C@H](CC(C)C)NC(=O)[C@@H](NC(=O)[C@@H]1CSSC[C@H](N)C(=O)N[C@@H](CO)C(=O)N[C@@H](CC(N)=O)C(=O)N[C@@H](CC(C)C)C(=O)N[C@@H](CO)C(=O)N[C@@H]([C@@H](C)O)C(=O)N1)C(C)C)C(=O)N[C@@H](CO)C(=O)N[C@@H](CCC(N)=O)C(=O)N[C@@H](CCC(=O)O)C(=O)N[C@@H](CC(C)C)C(=O)N[C@@H](Cc1c[nH]cn1)C(=O)N[C@@H](CCCCN)C(=O)N[C@@H](CC(C)C)C(=O)N[C@@H](CCC(N)=O)C(=O)N[C@H](C(=O)N[C@@H](Cc1ccc(O)cc1)C(=O)N1CCC[C@H]1C(=O)N[C@@H](CCCNC(=N)N)C(=O)N[C@H](C(=O)N[C@@H](CC(N)=O)C(=O)N[C@H](C(=O)NCC(=O)N[C@@H](CO)C(=O)NCC(=O)N[C@H](C(=O)N1CCC[C@H]1C(N)=O)[C@@H](C)O)[C@@H](C)O)[C@@H](C)O)[C@@H](C)O", "note": "[salmon calcitonin, Salmon calcitonin]", "values": [{"measurement": "potency of the standard salmon calcitonin used", "setting": "[1]; independently determined content of the standard", "result": "greater than 4,000 IU/mg"}]}, {"compound": "(1,7α-L-aminosuberic acid)eel calcitonin", "values": [{"measurement": "hypocalcemic potency", "setting": "[2]", "result": "about 3400 IU/mg"}]}, {"compound": "eel calcitonin [synthetic eel calcitonin]", "values": [{"measurement": "hypocalcemic potency", "setting": "[2]", "result": "around 4300 IU/mg"}]}]}
